Earlier results, collected in patent publication EP0611304B1, “USE OF […] (ACEMANNAN) FOR THE REGULATION OF BLOOD C[…] AND FOR REMOVING PLAQUES IN BLOOD VESSELS” (CARRINGTON LABORATORIES, INC., priority 1991, dated 1993).

Test system: CEM cells infected with HTLV-IIIRFII virus
Conditions: 0.001 µg/ml AZT alone

For `Cc1cn([C@H]2C[C@H](N=[N+]=[N-])[C@@H](CO)O2)c(=O)[nH]c1=O` [AZT, Zidovudine], the “increase in viability of infected CEM cells” value is listed as “no more than 10%”.
